Data published in patent publication US20220127281A1, “HETEROARYL COMPOUNDS THAT INHIBIT G12C MUTANT RAS PROTEINS” (AstraZeneca AB, priority 2017, published 2022).
Where two headings read alike, the source gives them in different places.

Key:
[1] = biological target: T1, GDP loaded biotinylated KRas^G12C protein (Homo sapiens, UniProt P01116, G12C); assay: KRasG12C functional assay; format: biochemical; settings: HTRF FRET readout of SOS-mediated nucleotide exchange and GST-Raf RBD binding, samples incubated for 4 hrs
T1 construct: biotin (biotinylated); made in house
Experimental: KRasG12C Functional Assay
All enzyme and substrate solutions were prepared in assay buffer containing 20 mM HEPES (pH 7.5), 5 mM MgCl2, 150 mM NaCl, and 0.01% Tween 20. […] In a separate mix 20 nM GST-Raf Ras binding domain (GST-Raf RBD, purified in house) and 4 μg/ml anti-GST XL665 antibody (Cisbio) was prepared in assay buffer containing 50 mM Potassium Fluoride and 0.05 mg/ml BSA and equilibrated for 4 hours before adding 0.6 μM Guanosine 5′-[γ-thio]triphosphate (GTPγS, Sigma) and 0.08 μM SOS (purified in house). 5 μl of the GST-RAF RBD mix was then dispensed into each well of the assay plate. […] This is detected simultaneously via the specific binding interaction between active GTPγS KRas^G12C with GST-Raf RBD which brings the europium and XL665 into close proximity enabling an increased FRET signal to be detected on a Pherastar (BMG) plate reader equipped with the HTRF filter module. […] IC50 values were calculated from normalised dose-response response FRET data curve fitted in Genedata screener (Basel, Switzerland).

[2] = biological target: T1, GDP loaded biotinylated KRas^G12C protein; assay: KRasG12C mass spectrometry adducting assay; format: binding; settings: test compound final concentration 10 μM, 4 μM KRasG12C, react for 4 hours
Experimental: KRasG12C Mass Spectrometry Adducting Assay
Enzyme solutions were prepared in assay buffer containing 20 mM HEPES (pH 7.5), 5 mM MgCl2, and 150 mM NaCl. […] The plate was sealed before reading on a Xevo G2 QTOF (Waters) and Acquity LC system (Waters). […] Blank samples were run in between each test sample.
Data was analysed in Mass Lynx software (Waters), the Total ion count (TIC) trace was used and the eluted protein peak data combined. Using the combined spectrum the data was deconvoluted using MaxEnt1 method. The peak area for apo-protein KRas^G12C (APO) and KRAS+relative cmpd mass (adduct) were measured, and a percentage adduct was calculated using the following calculation:
Percent adduct=100*(area of adduct peak/(sum of APO+adduct peaks)

[3] = read-out: KRasG12C functional assay IC50 value

T1 sequence (P01116 1-188 isoform P01116-2 G12C): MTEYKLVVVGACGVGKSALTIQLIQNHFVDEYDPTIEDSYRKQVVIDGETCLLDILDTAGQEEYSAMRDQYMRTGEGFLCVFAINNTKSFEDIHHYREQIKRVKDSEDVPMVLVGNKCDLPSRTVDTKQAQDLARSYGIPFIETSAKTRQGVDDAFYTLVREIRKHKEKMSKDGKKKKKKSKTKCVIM

## C=CC(=O)N1CCN2c3ncnc4cc(-c5ccccc5O)c(Cl)c(c34)OC[C@@H]2C1 [Example 63, 1-[(8aS)-6-Chloro-5-(2-hydroxyphenyl)-8a,9,11,12-tetrahydropyrazino[2′,1′:3,4][1,4]oxazepino[5,6,7-de]quinazolin-10(8H)-yl]prop-2-en-1-one]
[1]; [3]
  IC50: 0.896 µM
[2]
  KRasG12C M.S. Binding Mean adduct %: 87%

## C=CC(=O)N1CCN2c3ncnc4cc(-c5c(O)cccc5F)c(Cl)c(c34)OC[C@@H]2C1 (single isomer, unassigned) [Example 11]
[1]; [3]
  IC50: 0.097 µM
[2]
  KRasG12C M.S. Binding Mean adduct %: 92%

## C=CC(=O)N1CCN2c3ncnc4cc(-c5cccc6[nH]ncc56)c(Cl)c(c34)OC[C@@H]2C1 [Example 61, 1-[(8aS)-6-Chloro-5-(1H-indazol-4-yl)-8a,9,11,12-tetrahydropyrazino[2′,1′:3,4][1,4]oxazepino[5,6,7-de]quinazolin-10(8H)-yl]prop-2-en-1-one]
[1]; [3]
  IC50: 2.22 µM
[2]
  KRasG12C M.S. Binding Mean adduct %: 64%

## C=CC(=O)N1CCN2c3ncnc4cc(-c5cccc6ocnc56)c(Cl)c(c34)OC[C@@H]2C1 [Example 57, 1-[(8aS)-5-(1,3-Benzoxazol-4-yl)-6-chloro-8a,9,11,12-tetrahydropyrazino[2′,1′:3,4][1,4]oxazepino[5,6,7-de]quinazolin-10(8H)-yl]prop-2-en-1-one]
[1]; [3]
  IC50: 2.42 µM
[2]
  KRasG12C M.S. Binding Mean adduct %: 68%

## C=CC(=O)N1CCN2c3ncnc4cc(-c5c(C)ccc6[nH]ncc56)cc(c34)OC[C@H]2C1 [Example 6, 1-[(8aR)-5-(5-Methyl-1H-indazol-4-yl)-8a,9,11,12-tetrahydropyrazino[2′,1′:3,4]-[1,4]oxazepino[5,6,7-de]quinazolin-10 (8H)-yl]prop-2-en-1-one]
[1]; [3]
  IC50: 2.37 µM
[2]
  KRasG12C M.S. Binding Mean adduct %: 68%

## C=CC(=O)N1CCN2c3ncnc4cc(-c5ccccc5C#N)c(Cl)c(c34)OC[C@@H]2C1 [Example 68, 2-[(8aS)-10-Acryloyl-6-chloro-8,8a,9,10,11,12-hexahydropyrazino[2′,1′:3,4][1,4]oxazepino[5,6,7-de]quinazolin-5-yl]benzonitrile]
[1]; [3]
  IC50: 1.47 µM
[2]
  KRasG12C M.S. Binding Mean adduct %: 62%

## C=CC(=O)N1CCN2c3ncnc4cc(-c5cn(C)c6ccccc56)c(Cl)c(c34)OC[C@@H]2C1 [Example 46, 1-[(8aS)-6-Chloro-5-(1-methyl-1H-indol-3-yl)-8a,9,11,12-tetrahydropyrazino[2′,1′:3,4][1,4]oxazepino[5,6,7-de]quinazolin-10(8H)-yl]prop-2-en-1-one]
[1]; [3]
  IC50: 1.51 µM
[2]
  KRasG12C M.S. Binding Mean adduct %: 65%

## C=CC(=O)N1CCN2c3ncnc4cc(-c5c(C)ccc6[nH]ncc56)c(Cl)c(c34)OC[C@H]2C1 [Example 7, 1-[(8aR)-6-Chloro-5-(5-methyl-1H-indazol-4-yl)-8a,9,11,12-tetrahydropyrazino-[2′,1′:3,4][1,4]oxazepino[5,6,7-de]quinazolin-10 (8H)-yl]prop-2-en-1-one]
[1]; KRasG12C functional assay IC50 value (μM)
  IC50: 0.214 µM
[2]
  KRasG12C M.S. Binding Mean adduct %: 95%

## C=CC(=O)N1CCN2c3nc(N4CCOCC4)nc4cc(-c5c(C)ccc6[nH]ncc56)c(Cl)c(c34)OC[C@@H]2C1 (single isomer, unassigned) [Example 72]
[1]; [3]
  IC50: 39.4 µM
[2]
  KRasG12C M.S. Binding Mean adduct %: 5%

## C=CC(=O)N1CCN2c3ncnc4cc(-c5c(C)ccc6[nH]ncc56)cc(c34)OC[C@@H]2C1 [Example 5, 1-[(8aS)-5-(5-Methyl-1H-indazol-4-yl)-8a,9,11,12-tetrahydropyrazino[2′,1′:3,4][1,4]-oxazepino[5,6,7-de]quinazolin-10 (8H)-yl]prop-2-en-1-one]
[1]; [3]
  IC50: 0.798 µM
[2]
  KRasG12C M.S. Binding Mean adduct %: 91%

## C=CC(=O)N1CCN2c3nc(N4CCOCC4)nc4cc(-c5c(C)ccc6[nH]ncc56)c(Cl)c(c34)OC[C@@H]2C1 (single isomer, unassigned) [Example 71]
[1]; [3]
  IC50: 0.226 µM
[2]
  KRasG12C M.S. Binding Mean adduct %: 83%

## C=CC(=O)N1CCN2c3ncnc4cc(-c5cccc(OC)c5O)c(Cl)c(c34)OC[C@@H]2C1 [Example 27, 1-[(8aS)-6-Chloro-5-(2-hydroxy-3-methoxyphenyl)-8a,9,11,12-tetrahydropyrazino[2′,1′:3,4][1,4]oxazepino[5,6,7-de]quinazolin-10(8H)-yl]prop-2-en-1-one]
[1]; [3]
  IC50: 3.03 µM
[2]
  KRasG12C M.S. Binding Mean adduct %: 73%

## C=CC(=O)N1CCN2c3ncnc4cc(-c5cccc(F)c5OC)c(Cl)c(c34)OC[C@@H]2C1 [Example 26, 1-[(8aS)-6-Chloro-5-(3-fluoro-2-methoxyphenyl)-8a,9,11,12-tetrahydropyrazino[2′,1′:3,4][1,4]oxazepino[5,6,7-de]quinazolin-10(8H)-yl]prop-2-en-1-one]
[1]; [3]
  IC50: 2.06 µM
[2]
  KRasG12C M.S. Binding Mean adduct %: 71%

## C=CC(=O)N1CCN2c3ncnc4cc(-c5c(C)cnc6[nH]ncc56)c(Cl)c(c34)OC[C@@H]2C1 [Example 14, 1-[(8aS)-6-Chloro-5-(5-methyl-1H-pyrazolo[3,4-b]pyridin-4-yl)-8a,9,11,12-tetrahydro-pyrazino[2′,1′:3,4][1,4]oxazepino[5,6,7-de]quinazolin-10 (8H)-yl]prop-2-en-1-one]
[1]; [3]
  IC50: 2.54 µM
[2]
  KRasG12C M.S. Binding Mean adduct %: 53%

## C=CC(=O)N1CCN2c3nc(N4CCOCC4)nc4cc(-c5c(C)ccc6[nH]ncc56)c(Cl)c(c34)OC[C@@H]2C1 [Example 70, 1-[(8aS)-6-chloro-5-(5-methyl-1H-indazol-4-yl)-2-(morpholin-4-yl)-8a,9,11,12-tetrahydropyrazino[2′,1′:3,4][1,4]oxazepino[5,6,7-de]quinazolin-10 (8H)-yl]prop-2-en-1-one]
[1]; [3]
  IC50: 0.445 µM
[2]
  KRasG12C M.S. Binding Mean adduct %: 67%

## C=CC(=O)N1CCN2c3nc(NC4CCN(C5CC5)CC4)nc4cc(-c5c(C)ccc6[nH]ncc56)c(Cl)c(c34)OC[C@@H]2C1 (single isomer, unassigned) [Example 73]
[1]; [3]
  IC50: 1.9 µM
[2]
  KRasG12C M.S. Binding Mean adduct %: 8%

## C=CC(=O)N1CCN2c3nc(NCCN(C)C)nc4cc(-c5c(C)ccc6[nH]ncc56)c(Cl)c(c34)OC[C@@H]2C1 [Example 78, 1-((8aS)-6-Chloro-2-((2-(dimethylamino)ethyl)amino)-5-(5-methyl-1H-indazol-4-yl)-8a,9,11,12-tetrahydropyrazino[2′,1′:3,4][1,4]oxazepino[5,6,7-de]quinazolin-10 (8H)-yl)prop-2-en-1-one]
[1]; [3]
  IC50: 0.037 µM
[2]
  KRasG12C M.S. Binding Mean adduct %: 81%

## C=CC(=O)N1CCN2c3ncnc4cc(-c5cccc6[nH]c(=O)[nH]c56)c(Cl)c(c34)OC[C@@H]2C1 [Example 13, 4-[(8aS)-10-Acryloyl-6-chloro-8,8a,9,10,11,12-hexahydropyrazino[2′,1′:3,4][1,4]-oxazepino[5,6,7-de]quinazolin-5-yl]-1,3-dihydro-2H-benzimidazol-2-one]
[1]; [3]
  IC50: 2 µM
[2]
  KRasG12C M.S. Binding Mean adduct %: 64%

## C=CC(=O)N1CCN2c3ncnc4cc(-c5ccccc5Cl)c(Cl)c(c34)OC[C@@H]2C1 [Example 42, 1-[(8aS)-6-Chloro-5-(2-chlorophenyl)-8a,9,11,12-tetrahydropyrazino[2′,1′:3,4][1,4]oxazepino[5,6,7-de]quinazolin-10(8H)-yl]prop-2-en-1-one]
[1]; [3]
  IC50: 0.247 µM
[2]
  KRasG12C M.S. Binding Mean adduct %: 100%

## C=CC(=O)N1CCN2c3ncnc4cc(-c5c(O)cccc5OC)c(Cl)c(c34)OC[C@@H]2C1 (single isomer, unassigned) [Example 18]
[1]; [3]
  IC50: 0.868 µM
[2]
  KRasG12C M.S. Binding Mean adduct %: 100%

## C=CC(=O)N1CCN2c3ncnc4cc(-c5ccccc5C(=O)NC)c(Cl)c(c34)OC[C@@H]2C1 [Example 30, 2-[(8aS)-10-Acryloyl-6-chloro-8,8a,9,10,11,12-hexahydropyrazino[2′,1′:3,4][1,4]oxazepino[5,6,7-de]quinazolin-5-yl]-N-methylbenzamide]
[1]; [3]
  IC50: 9.41 µM
[2]
  KRasG12C M.S. Binding Mean adduct %: 22%

## C=CC(=O)N1CCN2c3ncnc4cc(-c5cnccc5C#N)c(Cl)c(c34)OC[C@@H]2C1 [Example 67, 3-[(8aS)-10-Acryloyl-6-chloro-8,8a,9,10,11,12-hexahydropyrazino[2′,1′:3,4][1,4]oxazepino[5,6,7-de]quinazolin-5-yl]pyridine-4-carbonitrile]
[1]; [3]
  IC50: 6.53 µM
[2]
  KRasG12C M.S. Binding Mean adduct %: 17%

## C=CC(=O)N1CCN2c3ncnc4c(F)c(-c5c(O)cccc5F)c(Cl)c(c34)OC[C@@H]2C1 [Example 69, 1-((8aS)-6-chloro-4-fluoro-5-(2-fluoro-6-hydroxyphenyl)-8a,9,11,12-tetrahydro-pyrazino[2′,1′:3,4][1,4]oxazepino[5,6,7-de]quinazolin-10 (8H)-yl)prop-2-en-1-one]
[1]; [3]
  IC50: 0.029 µM
